From patent US20230203058A1, “MACROCYCLIC DIAMINE DERIVATIVES AS ENT INHIBITORS FOR THE TREATMENT OF CANCERS, AND COMBINATION THEREOF WITH ADENOSINE RECEPTOR ANTAGONISTS” (ITEOS BELGIUM SA, priority 2020, published 2023) come the findings set out here.

Read-outs that look alike come from different tables or passages of the source.

The subject of assay [1] is stimulated primary human T cells. Briefly: T cell proliferation assay (rescue of proliferation in presence of ATP, CFSE dilution). The format is cell-based. To be noted: 100 uM ATP. On the procedure: The aim of this study was to determine the potency of equilibrative nucleoside transporter 1 (ENT1) inhibitors to rescue proliferation by stimulated primary human T cells incubated in the presence of 100 uM Adenosine triphosphate (ATP), in baseline conditions (condition A) or in the presence of various proteins known to bind small molecules (condition B). Condition A: X-VIVO15 Condition B: X-VIVO15, 2% Human Serum Albumine (HSA) and 0,1% α-1-Acid Glycoprotein (AAG)
Cryopreserved purified human CD3+ T cells were thawed and washed twice with RPMI1640 medium, UltraGlutamine containing 10% hiFBS.
Cells were suspended in PBS containing 10% hiFBS. Cells were stained with CFSE by adding 2 µM solution in PBS, to get a final 1 µM CFSE solution. Cells were incubated while rotating for 5 minutes. Reaction was stopped by adding PBS with 10% FBS and cells were centrifuged for 5 minutes at 1500 rpm.
Cells were resuspended at 1.6 ×10^6 cells/mL, either in X-VIVO15 medium or in 4% Human Serum Albumin and 0,2% α-1-Acid Glycoprotein. 50 µL of cell suspension (8×10^4 T cells) was added to wells of sterile round-bottom 96-well plates. Cells were activated by adding 50 µL of anti-CD3 anti-CD28 coated microbeads, suspended either in XVIVO-15 medium or in 4% HSA and 0,2% α-1-Acid Glycoprotein, at a ratio of one microbead per two cells. Serial dilutions of the ENT1 inhibitors were prepared in X-VIVO15 from 10 mM stock solutions in DMSO, and 50 µL was added to the wells. ATP powder was diluted in X-VIVO15, and 50 µL of this compound was added to the wells to reach a final assay concentration of 100 µM. Final volume of 200 µL. The experiments were also performed in 384 well plates - all volumes reduced by a factor of 4 (12,5 µL) with a final volume of 50 µL. Experiments were performed in duplicate. The cells were placed in a 37° C. humidified tissue culture incubator with 5% CO2 for 72 hours for 96 well plates, 96 hours for 384 well plates. After 72 or 96 hours, proliferation was measured determined by CFSE dilution via flow cytometry.

The target of the next assay is T1, human ENT1 (Homo sapiens, UniProt Q99808).
T1 sequence (Q99808 1-456): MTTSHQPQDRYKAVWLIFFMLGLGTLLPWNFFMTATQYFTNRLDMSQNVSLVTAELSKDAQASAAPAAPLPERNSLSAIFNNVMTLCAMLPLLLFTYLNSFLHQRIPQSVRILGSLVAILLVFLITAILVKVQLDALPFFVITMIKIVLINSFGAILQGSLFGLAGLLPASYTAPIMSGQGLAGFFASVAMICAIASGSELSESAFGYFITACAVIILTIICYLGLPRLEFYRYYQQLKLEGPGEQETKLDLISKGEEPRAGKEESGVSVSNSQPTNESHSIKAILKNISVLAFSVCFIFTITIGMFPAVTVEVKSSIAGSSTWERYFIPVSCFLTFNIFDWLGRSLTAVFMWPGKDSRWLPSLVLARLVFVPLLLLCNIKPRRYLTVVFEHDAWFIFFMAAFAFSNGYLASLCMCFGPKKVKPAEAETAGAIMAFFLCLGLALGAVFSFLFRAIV
Kind of assay: ENT1 binding assay (competition with Sahenta-DY647 on JAR cells). More on the design: JAR cells expressing ENT1 were bought from ATCC® (HTB-144TM); host or cells: JAR cells (human choriocarcinoma line; whole cells). To be noted: competition with Sahenta-DY647 100 nM, 4° C. The gist of the method:
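Competition binding on intact JAR cells (50000 per well) in HBSS with 10 mM Hepes and 0.1% BSA. Cells pre-incubated with compound 30 min at 4 °C, then Sahenta-DY647 added at its IC90 (100 nM) for another 30 min at 4 °C; after washing, fluorescence read at Ex 630/Em 670 nm.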

The target in a further assay is T2, hERG ion channel (Homo sapiens, UniProt Q12809).
T2 construct: Chinese Hamster Ovary cell lines stably expressing the full-length ion channel; expressed in transfected cells
T2 sequence (Q12809 whole entry): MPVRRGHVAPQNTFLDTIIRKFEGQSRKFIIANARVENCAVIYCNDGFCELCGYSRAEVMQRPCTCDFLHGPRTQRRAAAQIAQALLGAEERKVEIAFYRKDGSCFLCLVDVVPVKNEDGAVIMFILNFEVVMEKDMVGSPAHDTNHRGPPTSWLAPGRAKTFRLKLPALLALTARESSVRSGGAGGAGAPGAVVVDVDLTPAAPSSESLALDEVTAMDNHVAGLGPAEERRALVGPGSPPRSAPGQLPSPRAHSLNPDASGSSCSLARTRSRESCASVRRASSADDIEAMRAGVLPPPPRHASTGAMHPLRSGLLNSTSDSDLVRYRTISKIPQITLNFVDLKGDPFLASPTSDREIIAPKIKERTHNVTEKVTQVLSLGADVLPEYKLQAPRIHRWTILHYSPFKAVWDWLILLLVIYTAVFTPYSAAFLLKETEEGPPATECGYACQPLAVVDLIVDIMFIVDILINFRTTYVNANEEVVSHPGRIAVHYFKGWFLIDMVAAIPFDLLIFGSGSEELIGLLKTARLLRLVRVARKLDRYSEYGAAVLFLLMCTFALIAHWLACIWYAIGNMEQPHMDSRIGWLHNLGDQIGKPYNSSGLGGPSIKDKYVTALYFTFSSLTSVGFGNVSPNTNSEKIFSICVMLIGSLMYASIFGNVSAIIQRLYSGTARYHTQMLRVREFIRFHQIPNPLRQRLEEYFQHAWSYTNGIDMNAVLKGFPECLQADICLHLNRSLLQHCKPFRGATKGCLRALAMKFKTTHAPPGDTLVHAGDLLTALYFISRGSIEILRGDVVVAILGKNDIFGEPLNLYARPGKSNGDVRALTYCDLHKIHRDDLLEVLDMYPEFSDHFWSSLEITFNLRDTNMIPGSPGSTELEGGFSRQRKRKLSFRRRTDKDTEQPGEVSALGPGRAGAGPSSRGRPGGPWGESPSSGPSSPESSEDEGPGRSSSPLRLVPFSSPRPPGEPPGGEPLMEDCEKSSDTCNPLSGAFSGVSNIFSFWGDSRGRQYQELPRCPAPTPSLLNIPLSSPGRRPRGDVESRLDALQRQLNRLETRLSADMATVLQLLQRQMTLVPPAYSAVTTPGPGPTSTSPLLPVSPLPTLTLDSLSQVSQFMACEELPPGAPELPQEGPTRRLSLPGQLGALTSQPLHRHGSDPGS
Briefly: hERG ion channel inhibition (Patchliner automated patch-clamp, CHO cells). It is filed as cell-based. As to conditions: whole-cell, room temperature, 6-point curve up to 100 µM. The protocol: The compounds were tested for inhibition of hERG ion channel. 6-Point concentration-response curves were generated on the Patchliner automated patch-clamp using serial dilutions from a maximum test concentration of 100 µM.
Compounds were solubilised to 33 mM in DMSO before dilution in HBPS to 100 µM. 6-Point concentration-response curves were generated using serial dilutions from the top test concentration. Electrophysiological recordings were made from a Chinese Hamster Ovary cell lines stably expressing the full-length ion channel. Single cell ionic currents were measured in whole-cell configuration at room temperature (21-23° C.) using a Patchliner (Nanion Technologies). The internal solution for hERG contained (mM): 120 KF, 20 KCl, 10 EGTA, 10 HEPES and was buffered to pH 7.3. The external solution (HEPES-buffered saline, HBPS) contained (mM): 138 NaCl, 4.5 KCl, 1.8 CaC12, 1.0 MgC12, 10 HEPES, 10 glucose, buffered to pH7.4. Cells were clamped at a holding potential of -80 mV before a depolarising step appropriate for the hERG channel. Currents were measured from the step and referenced to the holding current. Compounds were incubated for 90 seconds. Concentration-response curves were generated by cumulative addition of compound with concentrations low to high. In all cases, steady-state inhibition was achieved before the next concentration of compound was added.
IC50 values were obtained from a 4-parameter logistic fit of the concentration-response data: […]
Background: The hERG channel carries a current that helps repolarise heart muscle cells.

Setting [2] is: Condition A: X-VIVO15, read-out: T Cell proliferation (Condition A) IC50.
Where [3] appears, read: Condition B: X-VIVO15, 2% HSA and 0,1% AAG, read-out: (2) T Cell proliferation (Condition B) IC50.

Take `COc1cc2cc(c1OC)OCCC[C@H](OC(=O)c1ccccc1)CCN1CCCN(CCCOC2=O)CC1` [Compound 33, (12S)-74,75-dimethoxy-6-oxo-5,8-dioxa-1(1,4)-diazepana-7(1,3)-benzenacyclotetradecaphane-12-yl benzoate]: the IC50 (in assay [1] (setting [2]); in assay [1] (setting [3]); on human ENT1) was > 500 nM each time.
`COc1cc2cc(c1OC)OCCCC(O/N=C\c1ccccc1)CCN1CCCN(CCCOC2=O)CC1` (centres unmarked) [Compound 37, (Z)-benzaldehyde O-(74,75-dimethoxy-6-oxo-5,8-dioxa-1(1,4)-diazepana-7(1,3)-benzenacyclotetradecaphane-12-yl) oxime]: the values for the IC50 (in assay [1] (setting [2]); in assay [1] (setting [3]); on human ENT1) were 1 to 20 nM, > 500 nM and 20 to 500 nM, respectively.
On to `COc1cc2cc(c1OC)OCCC[C@@H](O)CCN1CCCN(CCCOC2=O)CC1` [Compound 39, (12R)-12-hydroxy-74,75-dimethoxy-5,8-dioxa-1(1,4)-diazepana-7(1,3)-benzenacyclotetradecaphan-6-one], for which the IC50 in assay [1] (setting [2]) is 20 to 500 nM; in assay [1] (setting [3]), > 500 nM; at human ENT1, > 500 nM.
Turning to `COc1cc2cc(c1OC)OCCCC(OC(=O)c1ccc(OC(C)C)cc1)CCN1CCCN(CCCOC2=O)CC1` (centres unmarked) [Compound 43, 74,75-dimethoxy-6-oxo-5,8-dioxa-1(1,4)-diazepana-7(1,3)-benzenacyclotetradecaphane-12-yl 4-isopropoxybenzoate], the values for the IC50 (in assay [1] (setting [2]); in assay [1] (setting [3]); on human ENT1) were < 1 nM, 1 to 20 nM and 20 to 500 nM, respectively.
Take `COc1cc2cc(c1OC)OCCCC(OC(=O)c1cccc(Oc3ccccc3)c1)CCN1CCCN(CCCOC2=O)CC1` (centres unmarked) [Compound 46, 74,75-dimethoxy-6-oxo-5,8-dioxa-1(1,4)-diazepana-7(1,3)-benzenacyclotetradecaphane-12-yl 3-phenoxybenzoate]: the IC50 in assay [1] (setting [2]) lay within 1 to 20 nM; in assay [1] (setting [3]) it was 20 to 500 nM; at human ENT1, 20 to 500 nM.
Take `COc1cc2cc(c1OC)OCCCC(OC(=O)c1ccccn1)CCN1CCCN(CCCOC2=O)CC1` (centres unmarked) [Compound 52, 74,75-dimethoxy-6-oxo-5,8-dioxa-1(1,4)-diazepana-7(1,3)-benzenacyclotetradecaphane-12-yl picolinate]: the values for the IC50 against hERG ion channel and at human ENT1 were 2700 nM and 1 to 20 nM, respectively.
In the case of `COc1cc2cc(c1OC)OCCCC(OC(=O)c1cnccn1)CCN1CCCN(CCCOC2=O)CC1` (centres unmarked) [Compound 54, 74,75-dimethoxy-6-oxo-5,8-dioxa-1(1,4)-diazepana-7(1,3)-benzenacyclotetradecaphane-12-yl pyrazine-2-carboxylate], the IC50 in assay [1] (setting [2]) was 20 to 500 nM; in assay [1] (setting [3]), > 500 nM; at human ENT1, 1 to 20 nM.
`COc1cc2cc(c1OC)OCCCC(OC(=O)c1c[nH]nn1)CCN1CCCN(CCCOC2=O)CC1` (centres unmarked) [Compound 58, 74,75-dimethoxy-6-oxo-5,8-dioxa-1(1,4)-diazepana-7(1,3)-benzenacyclotetradecaphane-12-yl 1 H-1,2,3-triazole-4-carboxylate]: the IC50 in assay [1] (setting [2]) is 1 to 20 nM; in assay [1] (setting [3]), > 500 nM; on human ENT1, 1 to 20 nM.
Turning to `COc1cc2cc(c1OC)OCCCC(OC(C)=O)CCN1CCCN(CCCOC2=O)CC1` (centres unmarked) [Compound 59, 74,75-dimethoxy-6-oxo-5,8-dioxa-1(1,4)-diazepana-7(1,3)-benzenacyclotetradecaphane-12-yl acetate], the IC50 in assay [1] (setting [2]) was 1 to 20 nM; in assay [1] (setting [3]), > 500 nM; at human ENT1 it was 1 to 20 nM.
Consider `COc1cc2cc(c1OC)OCCCC(OC(=O)C1CC1)CCN1CCCN(CCCOC2=O)CC1` (centres unmarked) [Compound 60, 74,75-dimethoxy-6-oxo-5,8-dioxa-1(1,4)-diazepana-7(1,3)-benzenacyclotetradecaphane-12-yl cyclopropanecarboxylate], for which the IC50 in assay [1] (setting [2]) is 1 to 20 nM; in assay [1] (setting [3]) it was > 500 nM; at human ENT1, 1 to 20 nM.
Turning to `COCCC(=O)OC1CCCOc2cc(cc(OC)c2OC)C(=O)OCCCN2CCCN(CC1)CC2` (centres unmarked) [Compound 93, 74,75-dimethoxy-6-oxo-5,8-dioxa-1(1,4)-diazepana-7(1,3)-benzenacyclotetradecaphane-12-yl 3-methoxypropanoate], the IC50 in assay [1] (setting [2]) is 1 to 20 nM; in assay [1] (setting [3]) it was > 500 nM; at human ENT1, 1 to 20 nM.
Consider `COc1cc2cc(c1OC)OCCCC(OC(=O)CCn1cccn1)CCN1CCCN(CCCOC2=O)CC1` (centres unmarked) [Compound 94, 74,75-dimethoxy-6-oxo-5,8-dioxa-1 (1,4)-diazepana-7(1,3)-benzenacyclotetradecaphane-12-yl 3-(1H-pyrazol-1-yl)propanoate], for which the IC50 was 1 to 20 nM in assay [1] (setting [2]), > 500 nM in assay [1] (setting [3]) and 1 to 20 nM on human ENT1.
Turning to `COc1cc2cc(c1OC)OCCCC(OC(=O)CCCC#N)CCN1CCCN(CCCOC2=O)CC1` (centres unmarked) [Compound 96, 74,75-dimethoxy-6-oxo-5,8-dioxa-1 (1,4)-diazepana-7(1,3)-benzenacyclotetradecaphane-12-yl 4-cyanobutanoate], the results for the IC50 (in assay [1] (setting [2]); in assay [1] (setting [3]); on human ENT1) were 1 to 20 nM, > 500 nM and 1 to 20 nM, respectively.
As to `COc1cc2cc(c1OC)OCCCC(OC(=O)CCCNC(C)=O)CCN1CCCN(CCCOC2=O)CC1` (centres unmarked) [Compound 97, 74,75-dimethoxy-6-oxo-5,8-dioxa-1(1,4)-diazepana-7(1,3)-benzenacyclotetradecaphane-12-yl 4-acetamidobutanoate], the IC50 in assay [1] (setting [2]) was < 1 nM; in assay [1] (setting [3]) it was > 500 nM; on human ENT1, 1 to 20 nM.
As to `COc1cc2cc(c1OC)OCCCC(OC(=O)CCC(=O)N(C)C)CCN1CCCN(CCCOC2=O)CC1` (centres unmarked) [Compound 99, 74,75-dimethoxy-6-oxo-5,8-dioxa-1(1,4)-diazepana-7(1,3)-benzenacyclotetradecaphane-12-yl 4-(dimethylamino)-4-oxobutanoate], the IC50 in assay [1] (setting [2]) was < 1 nM; in assay [1] (setting [3]), 20 to 500 nM; at human ENT1 it was 1 to 20 nM.
For `COc1cc2cc(c1OC)OCCCC(OC(=O)CCNC(C)=O)CCN1CCCN(CCCOC2=O)CC1` (centres unmarked) [Compound 100, 74,75-dimethoxy-6-oxo-5,8-dioxa-1(1,4)-diazepana-7(1,3)-benzenacyclotetradecaphane-12-yl 3-acetamidopropanoate], the IC50 is 1 to 20 nM in assay [1] (setting [2]), > 500 nM in assay [1] (setting [3]) and 1 to 20 nM on human ENT1.
